Measurements from ChEMBL document CHEMBL5634128, “Development of chalcone-like derivatives and their biological and mechanistic investigations as novel influenza nuclear export inhibitors” (Eur J Med Chem, 2023).
Calls of active or inactive are those of the source. The calls are words filed in the database; no cut-off is given here.

Assays:
[1] = tested on: Influenza A virus; test: Anti-influenza activity against Influenza A virus A/Brisbane/10/2007 infected in chicken embryo fibroblast assessed as reduction in viral growth; type: functional, organism-based; settings: A/Brisbane/10/2007, Fibroblast
[2] = Binding affinity to influenza A virus M1 assessed as dissociation constant by SPR analysis
[3] = target: Nucleoprotein (Influenza A virus (strain A/Wilson-Smith/1933 H1N1), UniProt P15682); test: Binding affinity to influenza A virus Nucleoprotein assessed as dissociation constant by SPR analysis
Chain of Nucleoprotein (P15682 whole entry): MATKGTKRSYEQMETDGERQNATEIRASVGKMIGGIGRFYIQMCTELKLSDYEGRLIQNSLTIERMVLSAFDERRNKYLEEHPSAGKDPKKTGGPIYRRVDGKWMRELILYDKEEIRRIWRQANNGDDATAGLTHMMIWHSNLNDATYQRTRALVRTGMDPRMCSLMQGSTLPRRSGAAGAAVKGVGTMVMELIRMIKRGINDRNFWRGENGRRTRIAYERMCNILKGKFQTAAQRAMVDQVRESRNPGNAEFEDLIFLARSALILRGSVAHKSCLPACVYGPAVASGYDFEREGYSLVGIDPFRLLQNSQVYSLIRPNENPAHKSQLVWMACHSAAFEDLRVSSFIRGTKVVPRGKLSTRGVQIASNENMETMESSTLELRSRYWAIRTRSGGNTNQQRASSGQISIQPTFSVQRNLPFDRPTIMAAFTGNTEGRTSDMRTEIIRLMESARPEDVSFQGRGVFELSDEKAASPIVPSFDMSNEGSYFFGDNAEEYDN

[4] = target: Single-stranded DNA cytosine deaminase (Homo sapiens) (UniProt Q9GZX7); test: Induction of GFP-tagged AID degradation in human A549 cells at 20 uM; type: cell-based
Chain of Single-stranded DNA cytosine deaminase (Homo sapiens) (Q9GZX7 whole entry): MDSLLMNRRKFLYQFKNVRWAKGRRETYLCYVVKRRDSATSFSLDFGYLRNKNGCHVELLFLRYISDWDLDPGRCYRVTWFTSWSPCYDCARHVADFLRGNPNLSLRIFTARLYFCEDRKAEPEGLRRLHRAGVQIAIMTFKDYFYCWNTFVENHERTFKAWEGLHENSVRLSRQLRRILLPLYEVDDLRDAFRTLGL

[5] = Cytotoxicity against chicken embryo fibroblast cells assessed as reduction in cell growth at 50 uM by CCK-8 assay relative to control; type: toxicity, cell-based, Gallus gallus; settings: chicken embryo fibroblast cells, read-out: Activity
[6] = target: Exportin-1 (Homo sapiens) (UniProt O14980); test: Inhibition of CRM1-mediated nuclear export in human A549 cells assessed as distribution of GFP-tagged AID in nucleus at 20 uM administered for 12 hrs and measured after 24 hrs by fluorescence microscopy analysis; type: cell-based; settings: time 36.0 hrs
Chain of Exportin-1 (Homo sapiens) (O14980 whole entry): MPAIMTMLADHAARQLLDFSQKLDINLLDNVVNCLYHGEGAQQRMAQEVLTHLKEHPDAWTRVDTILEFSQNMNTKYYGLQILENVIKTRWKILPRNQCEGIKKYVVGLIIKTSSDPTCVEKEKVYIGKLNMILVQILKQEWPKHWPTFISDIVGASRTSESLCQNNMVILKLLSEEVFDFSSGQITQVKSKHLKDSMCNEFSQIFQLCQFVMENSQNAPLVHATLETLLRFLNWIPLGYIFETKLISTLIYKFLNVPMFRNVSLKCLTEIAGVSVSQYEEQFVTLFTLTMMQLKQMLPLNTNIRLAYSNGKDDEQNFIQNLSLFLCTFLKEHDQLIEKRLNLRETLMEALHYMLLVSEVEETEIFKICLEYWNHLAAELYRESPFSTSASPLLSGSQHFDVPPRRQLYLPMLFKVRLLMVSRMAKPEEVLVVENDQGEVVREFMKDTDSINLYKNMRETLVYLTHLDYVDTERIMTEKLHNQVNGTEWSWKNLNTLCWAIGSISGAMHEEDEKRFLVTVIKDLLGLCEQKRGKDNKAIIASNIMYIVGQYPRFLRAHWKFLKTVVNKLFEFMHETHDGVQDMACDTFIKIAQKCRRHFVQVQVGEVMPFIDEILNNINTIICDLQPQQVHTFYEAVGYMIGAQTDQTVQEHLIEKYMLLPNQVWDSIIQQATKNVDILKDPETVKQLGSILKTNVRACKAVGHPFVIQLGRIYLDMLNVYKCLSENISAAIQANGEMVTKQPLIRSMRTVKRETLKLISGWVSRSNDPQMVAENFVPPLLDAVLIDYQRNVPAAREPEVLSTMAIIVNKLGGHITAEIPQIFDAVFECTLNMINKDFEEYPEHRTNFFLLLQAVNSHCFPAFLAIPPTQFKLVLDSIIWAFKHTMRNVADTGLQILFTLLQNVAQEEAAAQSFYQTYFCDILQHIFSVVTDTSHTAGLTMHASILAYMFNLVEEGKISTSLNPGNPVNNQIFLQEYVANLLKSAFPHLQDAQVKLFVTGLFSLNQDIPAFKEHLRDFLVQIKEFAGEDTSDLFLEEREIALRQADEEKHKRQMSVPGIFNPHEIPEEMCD

[7] = tested on: Influenza A virus; test: Anti-influenza activity against Influenza A virus A/Goose/Guangdong/SH7/2013 (H5N1) infected in chicken embryo fibroblast at MOI 1 assessed as reduction in NP expression in nucleus at 10 uM measured after 10 hr post infection by Western blot analysis; type: functional, organism-based
[8] = tested on: Influenza A virus; test: Anti-influenza activity against Influenza A virus A/PR/8/34 infected in chicken embryo fibroblast assessed as reduction in viral growth; type: functional, organism-based; settings: A/PR/8/34, Fibroblast
[9] = tested on: Influenza A virus; test: Anti-influenza activity against Influenza A virus pdm09 infected in chicken embryo fibroblast assessed as reduction in viral growth; type: functional, organism-based
[10] = tested on: Influenza A virus; test: Anti-influenza activity against Influenza A virus H5N8 infected in chicken embryo fibroblast assessed as reduction in viral growth; type: functional, organism-based
[11] = tested on: Influenza A virus; test: Anti-influenza activity against Influenza A virus B/Victoria infected in chicken embryo fibroblast assessed as reduction in viral growth; type: functional, organism-based
[12] = tested on: Influenza A virus; test: Anti-influenza activity against Influenza A virus A/Goose/Guangdong/SH7/2013 (H5N1) infected in chicken embryo fibroblast at MOI 1 assessed as reduction in NP expression in cytoplasm at 10 uM measured after 10 hr post infection by Western blot analysis; type: functional, organism-based
[13] = tested on: Influenza A virus; test: Anti-influenza activity against Influenza A virus A/Goose/Guangdong/SH7/2013 (H5N1) infected in chicken embryo fibroblast at MOI 1 assessed as distribution of NP in nucleus at 10 uM measured after 10 hr post infection by DAPI staining based assay; type: functional, organism-based
[14] = Binding affinity to influenza A virus NS2 assessed as dissociation constant by SPR analysis
[15] = tested on: Influenza A virus; test: Anti-influenza activity against Influenza A virus B/Yamagata infected in chicken embryo fibroblast assessed as reduction in viral growth; type: functional, organism-based
[16] = tested on: Influenza A virus; test: Anti-influenza activity against Influenza A virus A/Goose/Guangdong/SH7/2013 (H5N1) infected in chicken embryo fibroblast assessed as inhibition of virus-induced cytopathic effect; type: functional
[17] = target: Exportin-1 (Homo sapiens) (UniProt O14980); test: Inhibition of CRM1-mediated nuclear export in human A549 cells assessed as distribution of GFP-tagged AID in cytoplasm at 20 uM administered for 12 hrs and measured after 24 hrs by fluorescence microscopy analysis; type: cell-based
[18] = tested on: Influenza A virus; test: Anti-influenza activity against Influenza A virus A/Goose/Guangdong/SH7/2013 (H5N1) infected in chicken embryo fibroblast at MOI 1 assessed as decrease in ratio of cytoplasmic to nuclear NP level at 10 uM measured after 10 hr post infection by Western blot analysis; type: functional, organism-based
[19] = tested on: Influenza A virus; test: Anti-influenza activity against Influenza A virus H5N1 infected in chicken embryo fibroblast assessed as reduction in viral growth; type: functional, organism-based
[20] = Cytotoxicity against chicken embryo fibroblast cells assessed as reduction in cell growth by CCK-8; type: toxicity, cell-based, Gallus gallus

SMILES	percent cell viability relative to control at 50 µM [5] [%]	inhibition (INH) [16] [%]	also measured
CCOc1ccc(/C=C/C(=O)/C=C/c2c(OC)cccc2OC)cc1	117	51.33	EC50 [1]: 3.69 µM; Kd [2]: Not Active; Kd [3]: 0.239 µM; Activity [4]: Active; inhibition [6]: inactive; Activity [7]: Active; EC50 [8]: 7.31 µM; EC50 [9]: 4.56 µM; EC50 [10]: 9.6 µM; EC50 [11]: 3.13 µM; Activity [12]: Active; Activity [13]: Active; Kd [14]: Not Active; EC50 [15]: 4.82 µM; inhibition [17]: inactive; Activity [18]: Active; EC50 [19]: 14.9 µM; CC50 [20]: > 100 µM
COc1cccc(OC)c1/C=C/C(=O)/C=C/c1ccc(N2CCCCC2)cc1	110	60.7	
COc1cccc(OC)c1/C=C/C(=O)/C=C/c1ccc(C(C)(C)C)cc1	86	72.89	
COc1cccc(OC)c1/C=C/C(=O)/C=C/c1ccc(-n2ccnc2)cc1	106	18.14	
COc1cccc(OC)c1C(=O)CCc1ccc([N+](=O)[O-])cc1	61	2.26	
COc1cccc(OC)c1/C=C/C(=O)/C=C/c1ccc(-c2ccccc2)cc1C	110	23.04	
Cc1onc(-c2ccccc2)c1C(=O)N1CCN(c2ccc([N+](=O)[O-])cc2Cl)CC1 [NUCLEOZIN]			Kd [2]: Not Active; Kd [3]: 0.014 µM; Kd [14]: Not Active
COc1cccc(OC)c1/C=C/C(=O)/C=C/c1nc(C)c(C)nc1C	83.8	71.53	
COc1cccc(OC)c1C(=O)C1OC1c1ccc(C(C)(C)C)cc1 (centres undefined)	85.8	28.99	
COc1cccc(OC)c1/C=C/C(=O)/C=C/c1ccc(N2CCCC2)cc1	133	62.89	
CCN(CC)c1ccc(/C=C/C(=O)/C=C/c2c(OC)cccc2OC)cc1	117	71.5	EC50 [10]: 13.6 µM; EC50 [19]: 18.1 µM; CC50 [20]: > 100 µM
COc1cccc(OC)c1C(=O)CCc1ccc(C(C)(C)C)cc1	96.4	13.17	
COc1cccc(OC)c1C(=O)N/N=C/c1ccccn1	81.9	13.78	
COc1cccc(OC)c1C(=O)CCc1ccc(C)cc1	65	29.55	
COc1cccc(OC)c1/C=C/C(=O)/C=C/c1ccccc1N1CCOCC1	63.3	73.17	
COc1cccc(OC)c1/C=C/C(=O)/C=C/c1c(C)cc(-c2ccccc2)cc1C	108	27.71	
COc1cccc(OC)c1/C=C/C(=O)/C=C/c1ccc(N(C)C)cc1	110	75.34	EC50 [10]: 16 µM; EC50 [19]: 20.9 µM; CC50 [20]: > 100 µM
COc1cccc(OC)c1C(=O)CCc1nc(C)c(C)nc1C	71	18.14	
COc1cccc(OC)c1C(=O)C1OC1c1ccc(C)cc1 (centres undefined)	62.5	35.03	
CCC(=C/[C@H](C)C/C=C/C(C)=C/[C@@H](C)C(=O)[C@@H](C)[C@H](O)[C@@H](C)C/C(C)=C/C(=O)O)/C=C/[C@@H]1OC(=O)C=C[C@@H]1C			inhibition [6]: Active
COc1ccc(/C=C/C(=O)/C=C/c2c(OC)cccc2OC)cc1-c1ccccc1	85	35.03	
COc1cccc(OC)c1/C=C/C(=O)/C=C/c1ccc(-c2ccccc2)c(C)c1	113	58.93	
COc1cccc(OC)c1C(=O)C1OC1c1ccccn1 (centres undefined)	71.8	27.71	
COc1cccc(OC)c1C(=O)C1OC1c1ccc([N+](=O)[O-])cc1 (centres undefined)	61	13.17	
COc1cccc(OC)c1C(=O)N/N=C/c1nc(C)c(C)nc1C	85	62.26	

SMILES	percent cell viability relative to control at 50 µM [5] [%]	inhibition (INH) [16] [%]	also measured
COc1cccc(OC)c1/C=C1\CCC/C(=C\c2ccccn2)C1=O	85	25.98	
COc1cccc(OC)c1/C=C/C(=O)/C=C/c1ccc(-c2cccnc2)cc1	111	25.98	
COc1cccc(OC)c1C(=O)/C=C/c1nc(C)c(C)nc1C	39.1		EC50 [1]: 3.69 µM; EC50 [8]: 3.51 µM; EC50 [9]: 1.34 µM; EC50 [10]: 10.8 µM; EC50 [11]: 3.87 µM; EC50 [15]: 2.47 µM; EC50 [19]: 7.34 µM; CC50 [20]: < 50 µM
COc1cccc(OC)c1/C=C/C(=O)/C=C/c1ccc(-n2cccn2)cc1	104	37.85	
COc1cccc(OC)c1/C=C/C(=O)/C=C/c1ccc(-n2ccnc2C)cc1	61	28.99	
COc1cccc(OC)c1/C=C1\CCC/C(=C\c2nc(C)c(C)nc2C)C1=O	72.4	57.06	
COc1cccc(OC)c1/C=C/C(=O)/C=C/c1ccc(-c2ccccc2)cc1	104	51.69	
COc1ccc(/C=C/C(=O)/C=C/c2c(OC)cccc2OC)cc1	108	26.89	
COc1cccc(OC)c1C(=O)C1OC1c1nc(C)c(C)nc1C (centres undefined)	64.6	5.53	
COc1cccc(OC)c1/C=C1\CCC/C(=C\c2ccc([N+](=O)[O-])cc2)C1=O	66.9	48.07	
COc1cccc(OC)c1/C=C1\CCC/C(=C\c2ccc(C)cc2)C1=O	67.2	46.7	
COc1cccc(OC)c1/C=C/C(=O)/C=C/c1ccc(-c2nccs2)cc1	106	60.3	
COc1cccc(OC)c1/C=C/C(=O)/C=C/c1ccc([N+](=O)[O-])cc1	99.5	70.62	
COc1cccc(OC)c1/C=C1\CCC/C(=C\c2ccc(C(C)(C)C)cc2)C1=O	61.1	57.57	
CCCOc1ccc(/C=C/C(=O)/C=C/c2c(OC)cccc2OC)cc1	149	41.16	
COc1cccc(OC)c1C(=O)N/N=C/c1ccc(C)cc1	61.2	47.74	
COc1cccc(OC)c1/C=C/C(=O)/C=C/c1cccc(N2CCOCC2)c1	69.5	71.53	
COc1cc(/C=C/C(=O)/C=C/c2c(OC)cccc2OC)ccc1-c1ccccc1	126	54.77	
COc1cccc(OC)c1/C=C/C(=O)/C=C/c1ccccn1	110	70.92	
COc1cccc(OC)c1C(=O)N/N=C/c1ccc([N+](=O)[O-])cc1	71.7	50.3	
COc1cccc(OC)c1/C=C/C(=O)/C=C/c1ccc(C)cc1	97.3	70.3	
COc1cccc(OC)c1/C=C/C(=O)/C=C/c1ccc(N2CCN(C)CC2)cc1	94.7	57.74	
COc1cccc(OC)c1C(=O)N/N=C/c1ccc(C(C)(C)C)cc1	57.7	38.93	
COc1cccc(OC)c1C(=O)CCc1ccccn1	74.6	27.71	
